For experiment [1], the target named is DNA dC->dU-editing enzyme APOBEC-3A (Homo sapiens, UniProt P31941). Description: APOBEC3A DNA deaminase inhibitors, dose response, biochemical (AID 504722). In kind it is functional.
Experiment [2] deals with DNA dC->dU-editing enzyme APOBEC-3G (Homo sapiens, UniProt Q9HC16). Description: Dose Response confirmation of small molecule APOBEC3G DNA Deaminase Inhibitors via a fluorescence-based single-stranded DNA deaminase assay. [Related pubchem assays (depositor defined):AID493012, AID493028]. In kind it is functional.
Sequence of DNA dC->dU-editing enzyme APOBEC-3G (Q9HC16 whole entry): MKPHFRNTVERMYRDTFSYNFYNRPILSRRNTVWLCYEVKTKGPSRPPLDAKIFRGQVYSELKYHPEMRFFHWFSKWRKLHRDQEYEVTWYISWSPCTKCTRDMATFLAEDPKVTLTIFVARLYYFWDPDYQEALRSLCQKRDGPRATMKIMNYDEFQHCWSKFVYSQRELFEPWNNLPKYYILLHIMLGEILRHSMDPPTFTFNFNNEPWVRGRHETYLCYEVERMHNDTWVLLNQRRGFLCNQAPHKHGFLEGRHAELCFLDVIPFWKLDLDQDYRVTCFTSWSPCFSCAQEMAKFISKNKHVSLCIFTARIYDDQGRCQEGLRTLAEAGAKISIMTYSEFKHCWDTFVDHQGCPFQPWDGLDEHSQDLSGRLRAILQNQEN
Experiment [3] has as its target T1, Rac GTPase-activating protein 1 (Homo sapiens, UniProt Q9H0H5).
T1 sequence (Q9H0H5 whole entry): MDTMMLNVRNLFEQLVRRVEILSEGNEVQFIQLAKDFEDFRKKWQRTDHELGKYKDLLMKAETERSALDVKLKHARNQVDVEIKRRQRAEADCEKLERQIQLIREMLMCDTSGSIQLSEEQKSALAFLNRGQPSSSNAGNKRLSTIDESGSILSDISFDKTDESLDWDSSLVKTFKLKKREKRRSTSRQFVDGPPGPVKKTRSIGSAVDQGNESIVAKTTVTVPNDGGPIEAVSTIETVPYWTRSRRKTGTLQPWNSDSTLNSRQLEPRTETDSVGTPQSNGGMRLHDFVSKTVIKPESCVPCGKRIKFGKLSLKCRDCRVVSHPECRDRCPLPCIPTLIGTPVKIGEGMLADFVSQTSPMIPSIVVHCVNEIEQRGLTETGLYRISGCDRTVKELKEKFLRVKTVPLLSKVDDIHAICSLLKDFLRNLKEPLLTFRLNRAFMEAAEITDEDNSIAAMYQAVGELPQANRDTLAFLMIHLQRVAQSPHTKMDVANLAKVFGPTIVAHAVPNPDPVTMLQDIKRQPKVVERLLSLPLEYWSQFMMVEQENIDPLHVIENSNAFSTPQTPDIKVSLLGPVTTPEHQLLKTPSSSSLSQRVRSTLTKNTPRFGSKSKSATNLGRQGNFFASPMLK
Description: MgcRacGAP GTPase-activating activity inhibitors, confirmation, biochemical, ADP Hunter fluorescence, primary and confirmatory (AID 624330). In kind it is functional.

The target in experiment [4] is T2, Alkaline phosphatase, tissue-nonspecific isozyme (Homo sapiens, UniProt P05186).
T2 sequence (P05186 whole entry): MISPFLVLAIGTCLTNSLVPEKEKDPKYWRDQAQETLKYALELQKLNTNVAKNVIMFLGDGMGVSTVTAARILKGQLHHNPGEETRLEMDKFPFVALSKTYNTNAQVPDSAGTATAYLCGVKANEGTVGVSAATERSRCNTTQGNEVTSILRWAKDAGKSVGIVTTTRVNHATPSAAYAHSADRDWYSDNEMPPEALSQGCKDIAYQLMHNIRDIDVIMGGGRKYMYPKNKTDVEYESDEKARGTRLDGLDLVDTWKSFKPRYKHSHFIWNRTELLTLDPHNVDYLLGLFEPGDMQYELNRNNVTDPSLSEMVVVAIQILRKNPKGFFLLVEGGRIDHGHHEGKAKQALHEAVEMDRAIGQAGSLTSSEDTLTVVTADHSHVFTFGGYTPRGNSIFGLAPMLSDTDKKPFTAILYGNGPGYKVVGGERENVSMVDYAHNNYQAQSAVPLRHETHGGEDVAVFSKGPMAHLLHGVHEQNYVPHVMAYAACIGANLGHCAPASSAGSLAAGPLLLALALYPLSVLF
Description: human TNAP enzyme inhibitors, SAR follow-up, biochemical, luminescent, dose response (AID 1056).

Another experiment concerns the target T3, Coagulation factor XII (Homo sapiens, UniProt P00748).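 Further: activated factor XIIa alpha cleaving a fluorogenic AMC peptide substrate; inhibitor potency from loss of enzyme activity.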
T3 sequence (P00748 whole entry): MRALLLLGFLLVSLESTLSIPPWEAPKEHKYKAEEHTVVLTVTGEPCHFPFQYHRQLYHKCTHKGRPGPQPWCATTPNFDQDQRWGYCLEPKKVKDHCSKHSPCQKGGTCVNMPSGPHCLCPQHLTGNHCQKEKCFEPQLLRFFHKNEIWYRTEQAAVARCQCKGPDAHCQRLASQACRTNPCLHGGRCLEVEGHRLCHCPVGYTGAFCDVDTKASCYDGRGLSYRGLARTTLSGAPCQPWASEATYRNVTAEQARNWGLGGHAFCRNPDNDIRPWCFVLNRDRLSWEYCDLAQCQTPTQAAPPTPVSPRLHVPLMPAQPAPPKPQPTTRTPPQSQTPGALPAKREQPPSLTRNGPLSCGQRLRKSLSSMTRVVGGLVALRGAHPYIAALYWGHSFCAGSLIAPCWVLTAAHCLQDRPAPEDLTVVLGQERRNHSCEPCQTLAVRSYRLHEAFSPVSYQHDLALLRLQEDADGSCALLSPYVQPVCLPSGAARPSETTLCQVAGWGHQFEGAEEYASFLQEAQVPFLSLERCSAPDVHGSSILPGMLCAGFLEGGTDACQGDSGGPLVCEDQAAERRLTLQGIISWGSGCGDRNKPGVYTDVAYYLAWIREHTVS
In kind it is functional.

In experiment [5] the test system is HEK293. In words: NOD1 signaling inhibitors, primary screen, cell-based, luminescence, uHTS (AID 1578). In kind it is functional. The settings on record: Homo sapiens.
Experiment [6] has as its system HEK293. Description: cells. The settings on record: Homo sapiens. In kind it is functional, cell-based.
Experiment [7] deals with HEK293. Description: NOD2 signaling inhibitors in MDP-stimulated cells, cell-based, uHTS, luminescence (AID 2001). To be noted: Homo sapiens. In kind it is functional.
In experiment [8] the target is Glucose-6-phosphate 1-dehydrogenase (Homo sapiens, UniProt P11413). In words: human G6PD enzyme inhibitors, dose response, selectivity assay for P. falciparum G6PD inhibitor project, biochemical, fluorescence (AID 504792). In kind it is functional.
Sequence of Glucose-6-phosphate 1-dehydrogenase (P11413 whole entry): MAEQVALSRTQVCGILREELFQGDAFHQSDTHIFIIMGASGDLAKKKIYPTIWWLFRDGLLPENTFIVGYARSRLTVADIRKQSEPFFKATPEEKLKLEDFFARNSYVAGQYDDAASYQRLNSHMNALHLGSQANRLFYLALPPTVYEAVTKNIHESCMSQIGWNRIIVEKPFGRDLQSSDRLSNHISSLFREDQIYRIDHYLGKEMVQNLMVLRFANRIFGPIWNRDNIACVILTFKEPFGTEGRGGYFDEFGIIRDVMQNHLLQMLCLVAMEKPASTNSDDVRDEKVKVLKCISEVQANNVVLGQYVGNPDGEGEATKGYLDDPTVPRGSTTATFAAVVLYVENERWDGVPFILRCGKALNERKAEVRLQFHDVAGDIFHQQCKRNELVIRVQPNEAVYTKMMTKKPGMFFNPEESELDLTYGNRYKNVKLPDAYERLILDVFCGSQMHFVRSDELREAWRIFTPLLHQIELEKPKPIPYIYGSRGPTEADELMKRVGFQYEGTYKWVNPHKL
The target of experiment [9] is Glyceraldehyde-3-phosphate dehydrogenase (Homo sapiens, UniProt P04406).
Sequence of Glyceraldehyde-3-phosphate dehydrogenase (P04406 whole entry): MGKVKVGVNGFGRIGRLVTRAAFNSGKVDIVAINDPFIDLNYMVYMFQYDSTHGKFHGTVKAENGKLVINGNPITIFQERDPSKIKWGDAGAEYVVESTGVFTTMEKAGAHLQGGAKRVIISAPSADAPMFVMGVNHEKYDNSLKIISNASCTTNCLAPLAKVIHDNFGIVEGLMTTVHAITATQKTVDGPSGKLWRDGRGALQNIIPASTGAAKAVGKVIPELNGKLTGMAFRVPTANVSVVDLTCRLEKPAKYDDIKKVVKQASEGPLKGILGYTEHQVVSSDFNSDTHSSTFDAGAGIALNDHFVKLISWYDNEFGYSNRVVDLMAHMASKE
A short description of experiment [10]: NIH-3T3 fibroblast cytotoxicity, dose response, cytotoxicity control, cell-based, fluorescence, Alamar Blue, secondary assay (AID 2327).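 Further: NIH-3T3 mouse fibroblasts cultured with fluconazole at 8 µg/mL.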 In kind it is functional.
A short description of experiment [11]: C. albicans growth with fluconazole, confirmation, fluorescence, retest (AID 2467). Format: functional, cell-based.
Experiment [12] addresses T4, Serine/threonine-protein phosphatase (Candida dubliniensis (strain CD36 / CBS 7987 / NCPF 3949 / NRRLY-17841) (Yeast), UniProt B9W6M3).
T4 sequence (B9W6M3 whole entry): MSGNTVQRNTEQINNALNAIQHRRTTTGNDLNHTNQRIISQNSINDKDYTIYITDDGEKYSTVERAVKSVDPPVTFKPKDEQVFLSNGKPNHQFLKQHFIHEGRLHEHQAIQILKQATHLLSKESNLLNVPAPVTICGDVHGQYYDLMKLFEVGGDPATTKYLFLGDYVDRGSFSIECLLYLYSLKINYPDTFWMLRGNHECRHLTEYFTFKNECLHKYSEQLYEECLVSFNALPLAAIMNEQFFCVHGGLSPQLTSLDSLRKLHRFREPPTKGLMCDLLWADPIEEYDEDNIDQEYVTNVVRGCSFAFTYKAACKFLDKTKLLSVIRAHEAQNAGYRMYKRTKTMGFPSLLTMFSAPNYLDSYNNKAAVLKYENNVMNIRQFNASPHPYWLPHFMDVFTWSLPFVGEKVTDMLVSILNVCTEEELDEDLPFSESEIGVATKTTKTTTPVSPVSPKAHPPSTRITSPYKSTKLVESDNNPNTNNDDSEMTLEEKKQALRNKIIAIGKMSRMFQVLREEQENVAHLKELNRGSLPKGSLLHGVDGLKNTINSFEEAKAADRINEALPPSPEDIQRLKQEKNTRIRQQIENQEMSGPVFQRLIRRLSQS
Description: calcineurin pathway inhibitors in yeast reporter, dose response, S. cerevisiae, CDRE-lacZ, luminescence, secondary (AID 2388).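 Further: yeast reporter cells carrying a calcineurin-responsive lacZ construct stimulated with calcium chloride; luminescent beta-galactosidase reporter signal in whole cells rather than isolated phosphatase activity; potency for inhibition where a drop in reporter signal means calcineurin blockade.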 Format: functional, cell-based.

For the next experiment, the target named is T5, Bcl-2-related protein A1 (Mus musculus, UniProt Q07440).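 Further: confirmatory dose–response counterscreen on Bfl-1, used to check hits from a UBC13 polyubiquitin inhibitor campaign.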
T5 sequence (Q07440 whole entry): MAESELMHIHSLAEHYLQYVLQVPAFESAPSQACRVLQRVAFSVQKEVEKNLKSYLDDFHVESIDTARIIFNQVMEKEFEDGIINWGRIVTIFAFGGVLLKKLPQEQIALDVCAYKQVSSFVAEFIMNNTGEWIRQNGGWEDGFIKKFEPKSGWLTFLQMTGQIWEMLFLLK
In kind it is functional.

The target of experiment [13] is T6, Ubiquitin-conjugating enzyme E2 N (Homo sapiens, UniProt P61088).
T6 sequence (P61088 whole entry): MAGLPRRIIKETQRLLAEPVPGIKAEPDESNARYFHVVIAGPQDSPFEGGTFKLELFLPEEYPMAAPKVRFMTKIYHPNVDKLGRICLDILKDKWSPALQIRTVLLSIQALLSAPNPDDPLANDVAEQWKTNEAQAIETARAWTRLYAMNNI
Format: functional.

Experiment [14] deals with T6, Ubiquitin-conjugating enzyme E2 N. Format: functional. The source holds these as a separate data set.
Experiment [15] has as its target Heat shock protein HSP 90-alpha (Homo sapiens, UniProt P07900). In kind it is functional, organism-based.
The target in experiment [16] is ATP-dependent molecular chaperone HSP82 (Candida albicans (strain WO-1) (Yeast), UniProt C4YTQ8). Description: loss of DOC-induced GRE-beta-galactosidase reporter signal, dose response, Hsp90 inhibitor project, S. cerevisiae, luminescence (AID 2400).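 Further: beta-galactosidase luminescence from glucocorticoid response element reporter as proxy for Hsp90 function; inhibitor potency where signal loss means Hsp90 inhibition.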 Format: functional, cell-based.
Sequence of ATP-dependent molecular chaperone HSP82 (C4YTQ8 whole entry): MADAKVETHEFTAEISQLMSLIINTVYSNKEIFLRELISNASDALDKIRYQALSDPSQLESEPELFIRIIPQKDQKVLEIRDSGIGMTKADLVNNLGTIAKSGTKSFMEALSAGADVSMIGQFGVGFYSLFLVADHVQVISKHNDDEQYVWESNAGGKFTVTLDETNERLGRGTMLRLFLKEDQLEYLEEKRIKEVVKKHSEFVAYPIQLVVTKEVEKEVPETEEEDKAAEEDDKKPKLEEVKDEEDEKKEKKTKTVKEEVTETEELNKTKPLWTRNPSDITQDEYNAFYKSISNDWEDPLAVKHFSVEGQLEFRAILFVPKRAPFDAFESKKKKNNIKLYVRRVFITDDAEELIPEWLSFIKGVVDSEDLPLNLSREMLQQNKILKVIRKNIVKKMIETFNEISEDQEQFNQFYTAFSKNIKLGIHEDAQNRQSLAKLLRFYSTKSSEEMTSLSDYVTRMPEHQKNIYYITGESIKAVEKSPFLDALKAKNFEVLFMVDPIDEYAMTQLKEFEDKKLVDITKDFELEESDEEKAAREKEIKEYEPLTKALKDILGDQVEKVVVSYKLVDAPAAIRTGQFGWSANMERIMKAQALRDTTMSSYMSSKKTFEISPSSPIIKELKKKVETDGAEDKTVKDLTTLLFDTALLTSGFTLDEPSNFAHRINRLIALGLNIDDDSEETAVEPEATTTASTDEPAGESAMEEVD
The target of experiment [17] is FAD-linked sulfhydryl oxidase ALR (Homo sapiens, UniProt P55789). Description: inhibitors of human ALR sulfhydryl oxidase, dose response, biochemical, H2O2 detection, luminescence, cherry-pick (AID 493248).
Sequence of FAD-linked sulfhydryl oxidase ALR (P55789 whole entry): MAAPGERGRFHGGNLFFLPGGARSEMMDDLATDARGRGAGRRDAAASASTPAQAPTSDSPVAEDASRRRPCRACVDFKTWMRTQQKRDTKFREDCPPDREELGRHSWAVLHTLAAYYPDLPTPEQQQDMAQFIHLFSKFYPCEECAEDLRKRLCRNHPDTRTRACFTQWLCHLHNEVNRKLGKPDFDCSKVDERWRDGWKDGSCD
Another experiment has as its target Genome polyprotein (dengue virus type 2, UniProt P29990). In words: Dengue-2 NS5 methyltransferase inhibitors, primary screen, biochemical, confirmation dose response (AID 588689). Format: functional.
The target in the next experiment is Large T antigen (Simian virus 40, UniProt P03070). In kind it is functional, Betapolyomavirus macacae.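 Further: Confirmatory-stage PubChem screen for compounds that inhibit SV40 T antigen.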
Sequence of Large T antigen (P03070 whole entry): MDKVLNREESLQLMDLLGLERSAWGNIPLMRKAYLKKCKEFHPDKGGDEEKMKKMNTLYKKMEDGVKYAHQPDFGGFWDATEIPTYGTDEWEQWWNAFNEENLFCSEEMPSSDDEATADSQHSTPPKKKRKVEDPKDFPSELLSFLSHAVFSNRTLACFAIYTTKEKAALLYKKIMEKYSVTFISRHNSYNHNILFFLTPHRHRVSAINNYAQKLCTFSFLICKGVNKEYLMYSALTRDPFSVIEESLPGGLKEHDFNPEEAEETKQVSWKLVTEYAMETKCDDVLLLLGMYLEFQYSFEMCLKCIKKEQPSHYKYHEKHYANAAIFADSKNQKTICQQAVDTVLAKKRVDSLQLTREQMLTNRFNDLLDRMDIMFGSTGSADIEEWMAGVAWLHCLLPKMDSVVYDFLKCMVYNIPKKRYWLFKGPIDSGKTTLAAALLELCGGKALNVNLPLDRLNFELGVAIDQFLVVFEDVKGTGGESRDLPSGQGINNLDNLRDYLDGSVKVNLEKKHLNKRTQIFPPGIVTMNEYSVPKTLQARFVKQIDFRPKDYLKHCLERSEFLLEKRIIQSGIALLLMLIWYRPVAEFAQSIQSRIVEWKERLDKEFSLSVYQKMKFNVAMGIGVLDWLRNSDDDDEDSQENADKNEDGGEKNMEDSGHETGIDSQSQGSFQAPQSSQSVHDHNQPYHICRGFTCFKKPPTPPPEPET
Experiment [18] addresses Delta-type opioid receptor (Homo sapiens, UniProt P41143). In words: Counterscreen for agonists of heterodimerization of the mu 1 (OPRM1) and delta 1 (OPRD1) opioid receptors: Luminescence-based cell-based high throughput dose response assay to identify agonists of OPRD1 homodimerization. [Related pubchem assays (depositor defined):AID504326, AID504355, AID504692, AID504904, AID504905]. Format: functional. On the technique in general: A counterscreen serves to expose hits that act by an unwanted route or on another target.

The target in a further experiment is Mu-type opioid receptor (Homo sapiens, UniProt P35372). Description: Counterscreen for agonists of heterodimerization of the mu 1 (OPRM1) and delta 1 (OPRD1) opioid receptors: Luminescence-based cell-based high throughput dose response assay to identify agonists of OPRM1 homodimerization. In kind it is functional.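 Further: U2OS cells expressing OPRM1 and beta-arrestin as split beta-galactosidase partners.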
Experiment [19] concerns the target 5-hydroxytryptamine receptor 5A (Homo sapiens, UniProt P47898). In words: Counterscreen for agonists of OPRM1-OPRD1 heterodimerization: luminescence-based cell-based high throughput dose response assay to identify agonists of 5-hydroxytryptamine (serotonin) 5A receptor (HTR5A). [Related pubchem assays (depositor defined):AID504326, AID504355, AID504692, AID504904, AID504905]. Format: functional.

Calls of active or inactive are those of the source.

Sequence of Genome polyprotein (P29990 2492-3391 limits assumed): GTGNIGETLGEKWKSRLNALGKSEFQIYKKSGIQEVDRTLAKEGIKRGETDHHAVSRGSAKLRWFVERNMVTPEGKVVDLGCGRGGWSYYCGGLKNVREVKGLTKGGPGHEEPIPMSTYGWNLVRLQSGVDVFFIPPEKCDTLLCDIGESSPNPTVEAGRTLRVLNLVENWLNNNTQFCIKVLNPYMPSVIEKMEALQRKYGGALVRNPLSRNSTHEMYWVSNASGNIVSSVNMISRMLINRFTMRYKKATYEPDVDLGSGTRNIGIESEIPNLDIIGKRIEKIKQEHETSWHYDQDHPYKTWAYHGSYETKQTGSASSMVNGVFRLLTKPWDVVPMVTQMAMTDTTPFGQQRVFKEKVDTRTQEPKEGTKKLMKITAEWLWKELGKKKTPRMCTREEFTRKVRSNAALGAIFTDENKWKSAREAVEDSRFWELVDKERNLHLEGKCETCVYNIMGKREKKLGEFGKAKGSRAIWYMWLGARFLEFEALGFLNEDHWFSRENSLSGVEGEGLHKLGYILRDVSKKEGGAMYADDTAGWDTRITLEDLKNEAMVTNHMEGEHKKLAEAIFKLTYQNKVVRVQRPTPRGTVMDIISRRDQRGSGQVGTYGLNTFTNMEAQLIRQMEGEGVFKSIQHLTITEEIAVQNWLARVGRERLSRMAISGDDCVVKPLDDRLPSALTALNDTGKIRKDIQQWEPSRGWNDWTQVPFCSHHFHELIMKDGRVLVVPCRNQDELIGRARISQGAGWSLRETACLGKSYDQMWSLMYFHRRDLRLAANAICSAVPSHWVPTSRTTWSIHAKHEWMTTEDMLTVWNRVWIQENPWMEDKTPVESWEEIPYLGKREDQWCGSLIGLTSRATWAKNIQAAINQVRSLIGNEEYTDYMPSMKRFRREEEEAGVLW
Sequence of DNA dC->dU-editing enzyme APOBEC-3A (P31941 whole entry): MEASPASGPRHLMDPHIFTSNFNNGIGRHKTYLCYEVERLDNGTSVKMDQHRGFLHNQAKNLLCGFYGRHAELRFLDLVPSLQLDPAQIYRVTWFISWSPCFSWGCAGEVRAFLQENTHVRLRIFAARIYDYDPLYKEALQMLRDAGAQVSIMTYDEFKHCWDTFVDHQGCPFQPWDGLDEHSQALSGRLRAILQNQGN
Sequence of 5-hydroxytryptamine receptor 5A (P47898 whole entry): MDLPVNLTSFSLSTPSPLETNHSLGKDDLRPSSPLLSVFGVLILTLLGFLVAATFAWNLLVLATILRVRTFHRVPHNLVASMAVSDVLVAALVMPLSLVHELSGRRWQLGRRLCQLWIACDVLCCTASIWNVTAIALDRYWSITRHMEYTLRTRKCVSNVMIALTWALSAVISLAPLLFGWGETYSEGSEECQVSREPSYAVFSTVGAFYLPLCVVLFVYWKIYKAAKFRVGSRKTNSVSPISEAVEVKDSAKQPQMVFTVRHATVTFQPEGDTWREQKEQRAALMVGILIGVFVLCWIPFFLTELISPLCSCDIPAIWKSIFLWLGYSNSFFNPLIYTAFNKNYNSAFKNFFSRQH
Sequence of Delta-type opioid receptor (P41143 whole entry): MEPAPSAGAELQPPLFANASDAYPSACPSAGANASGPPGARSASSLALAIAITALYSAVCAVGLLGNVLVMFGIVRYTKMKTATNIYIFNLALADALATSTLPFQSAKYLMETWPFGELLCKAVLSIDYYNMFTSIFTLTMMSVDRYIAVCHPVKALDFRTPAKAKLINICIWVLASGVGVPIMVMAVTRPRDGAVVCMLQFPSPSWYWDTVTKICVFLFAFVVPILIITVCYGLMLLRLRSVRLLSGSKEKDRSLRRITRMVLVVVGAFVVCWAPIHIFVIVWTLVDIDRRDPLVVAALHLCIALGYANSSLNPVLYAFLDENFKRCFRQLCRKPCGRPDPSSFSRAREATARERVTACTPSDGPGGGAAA

In the case of `COc1ccc(/C=N/n2c(S)nnc2-c2[nH]nc3c2CCC3)cc1OC`, the IC50 is > 100 µM (inactive) in experiment [1], 2.49 µM (active) in experiment [2] and 79.9 µM (active) in experiment [3].

For `COc1ccc(C(C)(C)C)cc1S(=O)(=O)Nc1cccnc1`, in experiment [4], the IC50 is 26.4 µM (active).

Consider `CSc1ccccc1C(=O)C1CCCN(S(=O)(=O)N(C)C)C1` (configuration not stated), for which, on Coagulation factor XII, the IC50 was > 50 µM (inactive).

`COc1ccccc1NS(=O)(=O)c1cccc(NC(=O)c2ccc3ccccc3n2)c1`: the EC50 with HEK293 [5] was 6.61 µM (active). The IC50 was > 20 µM (inactive) in the experiment with HEK293 [6] and 7.38 µM (active) with HEK293 [7].

Regarding `CCN(CC)c1ccc(NC(=O)c2cccc(C)c2)cc1S(=O)(=O)Nc1ccccc1OC`, the IC50 in [8] is > 80 µM (inactive); in experiment [2], 51.5 µM (active).

`CCOc1ccc(S(=O)(=O)Nc2cnc3ccccc3c2)cc1`: the IC50 in experiment [9] is > 100 µM (not active); in experiment [4], > 100 µM (inactive).

Turning to `Cc1ccc(OCC(=O)NNC(=S)NC(=O)C2CC2)c(C)c1`, the EC50 is > 150 µM (inactive) in experiment [10], 1.25 µM (active) in experiment [11], > 180 µM (inactive) in experiment [12] and 14.3 µM (active) in experiment [16]. The results for the IC50 (on Bcl-2-related protein A1; in experiment [13]; in experiment [14]) were > 20 µM (inactive), 3.27 µM (active) and 1.59 µM (active), respectively. In addition, the concentration at half-maximal activity (AC50) in experiment [15] is 4.32 µM (active).

On to `NS(=O)(=O)c1ccc(-c2ccc(C=C3C(=O)NC(=O)NC3=O)o2)cc1`, for which the IC50 in experiment [8] is 27.4 µM (inactive); at Genome polyprotein, > 100 µM (active). In experiment [17], the AC50 is 1.16 µM (active).

Regarding `COc1ccc(-c2oc3ncnc(N)c3c2-c2ccccc2)cc1`, the figures for the IC50 (on Bcl-2-related protein A1; in experiment [13]; in [14]) were > 20 µM (inactive), 7.81 µM (active) and 3.58 µM (active), respectively.

For `COc1ccc(C2CC(=O)C(C(c3ccc(O)cc3)C3C(=O)CC(c4ccc(OC)cc4)CC3=O)C(=O)C2)cc1` (configuration not stated), the IC50 was 37.3 µM (active) on Large T antigen and > 50 µM (inactive) at Coagulation factor XII.

`O=C(CCCN1C(=O)c2cccc3cccc(c23)C1=O)NCc1cccnc1`: the IC50 at Coagulation factor XII is > 50 µM (inactive).

Turning to `CCOC(=O)C1(CCOc2ccccc2)CCN(Cc2ccc(C)s2)CC1`, the EC50 (in experiment [18]; at Mu-type opioid receptor; in experiment [19]) was > 92.5 µM (inactive) in each case.

In general, IC50 refers to the point on the concentration scale where inhibition reaches its midpoint. What is called EC50 is the concentration giving half of the maximal effect. For orientation: AC50 means the midpoint of the concentration-response curve, whichever way the signal moves.

The values above are taken from ChEMBL document CHEMBL1201862, “PubChem BioAssay data set” (2004).
